# Patent publication US20150216848A1, “COMPOUNDS THAT INHIBIT TAU PHOSPHORYLATION” (THE TRANSLATIONAL GENOMICS RESEARCH INSTITUTE, priority 2010, published 2015)
# Entries after “also recorded” stand apart in the source; their conditions may differ. Where two headings read alike, the source gives them in different places.
# How the values were obtained:
# [1] = tested on: total tau and phosphorylated tau (12E8 pS262/pS356, pT231, pS396) in 4R0N tau overexpressing H4 neuroglioma cells; test: Cell culture tau assay (Western blot of total and phosphorylated tau); type: cell-based; details: for effects in the cell-based tau assay: FIG. 3; for phosphorylated forms of tau (12E8 pS262/pS356, pT231, pS396): H4-tau cells, 80 nM, 800 nM and 8 μM, 96 hours; for total tau and phosphorylated forms of tau: doses up to 500 μM
# recombinant human DYRK1A = molecular target: T1, recombinant human DYRK1A (Homo sapiens, UniProt Q13627); type: biochemical; details: for IC50: recombinant DYRK1A and 4R2N tau, 1 mM ATP, read-out: IC50, inhibition of DYRK1A dependent tau phosphorylation at serine 396
# T1 construct: purchased Invitrogen (DYRK1A); SignalChem (tau)
# H4 neuroglioma cell line = test: Viability (toxicity) assay, alamar Blue; type: cell-based; details: for effect on the viability of the cells at the lower doses: 9-ethylharmine 1 μM, harmine 0.8 μM; for IC50: read-out: IC50 for viability (toxicity)
# [2] = tested on: spatial working memory and short-term memory retention; test: Delayed-match-to-sample asymmetrical 3-choice task; type: in vivo, rat
# Excerpt: (§1) Twenty-six 17 month-old Fischer-344 male rats raised at the National Institute on Aging colony at Harlan Laboratories (Indianapolis, Ind.) were used in the study. After arrival, rats were pair-housed, had food and water ad-lib, and were maintained on a 12-h light/dark cycle. Procedures were approved by the Institutional Animal Care and Use Committee, and adhered to National Institutes of Health standards.
# (§2) Rats were randomly divided into three treatment groups (n at start of study, m included in final behavioral analyses): vehicle (10, 10), low-Harmine 1 mg/kg (10, 10), or high-Harmine 5 mg/kg (10, 6). […]
# Spatial working memory and short-term memory retention were evaluated using a win-stay water-escape DMS asymmetrical place-learning task. […] Entry into any non-platformed arm was counted as an error. An arm entry was counted when the tip of a rat's snout reached a mark on the outside of the arm (not visible from the inside of the maze; 11 cm into the arm).
# In an initial analysis, Harmine-low and Harmine-high groups were compared. […] DMS data were analyzed with an omnibus ANOVA with treatment as the between groups variable and total number of errors for each trial as repeated measures. MM data were analyzed with an omnibus ANOVA with treatment as the between groups variable and swim distance (cm) to the platform as repeated measures. […]
# [3] = tested on: motor and visual competence; test: Visible platform task and observed motor side effects; type: in vivo, rat; details: rats
# Excerpt: as §1
# Rats were randomly divided into three treatment groups (n at start of study, m included in final behavioral analyses): vehicle (10, 10), low-Harmine 1 mg/kg (10, 10), or high-Harmine 5 mg/kg (10, 6). Nine days after arrival, animals started receiving daily subcutaneous injections at a volume of 1 ml/kg. […] Behavioral testing began after the second injection day, testing commenced approximately 30-45 minutes after injections and lasted for 6-8 hours. Animals were assigned semi-randomly to one of three testing squads of 10 animals each balanced with respect to treatment group.
# Four days after MM testing, motor and visual competence were evaluated using the visible platform task. This was an adaptation of the cue-navigation version of the spatial MM task previously used to dissociate visual and motor acuity from place memory. This task was ideal due to its similarity to other spatial water-maze tasks with respect to motor and visual requirements, differing only in that animals are not required to associate the location of the platform with distal cues. […]
# (§3) In an initial analysis, Harmine-low and Harmine-high groups were compared. […] DMS data were analyzed with an omnibus ANOVA with treatment as the between groups variable and total number of errors for each trial as repeated measures. MM data were analyzed with an omnibus ANOVA with treatment as the between groups variable and swim distance (cm) to the platform as repeated measures. […] Visible platform data were further analyzed using a regression analysis with testing squad (1-3) as the predictor and mean escape latency across trials 1-6 as the criterion. […]
# spatial reference memory = test: Morris water maze; type: in vivo, rat; details: rats
# Excerpt: as §1, §2
# Spatial reference memory was evaluated using the Morris Maze. […] A video camera and tracking system tracked and measured each rat's swim pathway.
# as §3
compound,measurement,setting,value
CCn1c2cc(OC)ccc2c2ccnc(C)c21 [9-ethyl harmine],reducing total tau and phosphorylated tau levels,[1]; 1 μM,significant reductions
same,reducing total tau and phosphorylated tau levels,[1]; dose of 10 μM,significant effects
same,IC50,recombinant human DYRK1A,0.4 µM
same,effect on the viability of the cells at the lower doses,H4 neuroglioma cell line,no detectable effect
same,IC50,H4 neuroglioma cell line,9 µM
COc1ccc2c3c([nH]c2c1)C(C)=NCC3 [harmaline],effects in the cell-based tau assay,[1],relatively muted effects
same,affinity relative to harmine in the in vitro phosphorylation assay,recombinant human DYRK1A,more than an order of magnitude lower in affinity than harmine
same,IC50,H4 neuroglioma cell line,56 µM
Cc1nccc2c1[nH]c1ccccc12 [harmane],effects in the cell-based tau assay,[1],relatively muted effects
same,affinity relative to harmine in the in vitro phosphorylation assay,recombinant human DYRK1A,more than an order of magnitude lower in affinity than harmine
same,IC50,H4 neuroglioma cell line,32 µM
COc1ccc2c(c1)[nH]c1c(C)nccc12 [harmine],"total errors on the DMS task, testing block 4 (Days 8-9), trials 2-6","[2]; 17 month-old Fischer-344 male rats, 1 and 5 mg/kg daily subcutaneous, groups combined, vs vehicle, P=0.03",enhanced working and short-term memory; also recorded: fewer total errors
same,"DMS task, testing blocks 1, 2 or 3","[2]; rats, 1 and 5 mg/kg s.c. combined",no main effects
same,decrease of mean escape latency with each squad tested (visible platform task),[3]; Harmine-high 5 mg/kg s.c.,roughly 11.6 seconds
same,duration of motor impairments after injections,[3]; Harmine-high 5 mg/kg s.c.,1 to 2 h
same,motoric effects,[3]; harmine treatment,obvious motoric effects
same,reducing total tau and phosphorylated tau levels,[1]; 0.8 μM,significant reductions
same,levels of total tau protein,[1]; 0.8 μM and 8 μM,reduce the levels of total tau protein
same,"phosphorylated forms of tau (12E8 pS262/pS356, pT231, pS396)",[1],dose-dependent reduction
same,"phosphorylated forms of tau (12E8 pS262/pS356, pT231, pS396)",[1]; listed as Harmine,reduced the expression of each phospho-tau species tested
same,reducing total tau and phosphorylated tau levels,[1]; dose of 10 μM,significant effects
same,"Morris maze distance swam to the platform, days 1-3",spatial reference memory; 1 and 5 mg/kg s.c.,no Harmine treatment main effects
same,effect on spatial reference memory,spatial reference memory; doses tested 1 and 5 mg/kg s.c.,no significant effect
same,effect on the viability of the cells at the lower doses,H4 neuroglioma cell line,no detectable effect
same,IC50,H4 neuroglioma cell line,12 µM
"O=C(NCCN1CCOCC1)c1ccc(Cl)cc1 [moclobemide, reference compound]",total tau and phosphorylated forms of tau,[1],did not affect tau phosphorylation
same,total tau and phosphorylated forms of tau,[1]; listed as Moclobemide,did not reduce levels
c1ccc2c(c1)[nH]c1cnccc12 [norharmane],effects in the cell-based tau assay,[1],relatively muted effects
same,affinity relative to harmine in the in vitro phosphorylation assay,recombinant human DYRK1A,more than an order of magnitude lower in affinity than harmine
same,IC50,H4 neuroglioma cell line,95 µM
harmol,reducing total tau and phosphorylated tau levels,[1]; dose of 10 μM,significant effects
same,IC50,recombinant human DYRK1A,0.09 µM
same,IC50,"H4 neuroglioma cell line; H4 neuroglioma cell line, alamar Blue, fresh drug every 24 hours for 4 days",18 µM
